Measured values: patent US11730810B2, “Composition comprising an antigen and a substituted imidazo[1,2-a]pyrimidine for enhancing human immune response” (Children's Medical Center Corporation, priority 2017, dated 2023)

What was measured:
mouse splenocytes = experiment: Splenocyte in vitro stimulation, murine IL-6 by ELISA; type: cell-based, C57BL/6 mice; conditions: 33 μM, 18 hours
human adult PBMCs [1] = experiment: In vitro PBMC stimulation, TNF production by ELISA (Table 1); type: cell-based; conditions: 18 hours
Protocol: (§1) Human adult PBMCs were stimulated for 18 hours with compound 037 and its analogs at 33 μM. Production of human TNF was assessed in cell-free supernatants by ELISA. Results are shown as the median, the 25th and 75th percentiles (boxes) and the 5th and 95th percentiles (whiskers) and expressed as percentage TNF production (TNF %) as compared to R848 (FIG. 6A) or TNF concentration in ng/ml (FIG. 6B) (N=3-5). **p<0.01 determined by repeated measure one-way ANOVA with Dunnett's multiple comparison test on log-transformed data and comparing each compound with DMSO (control condition).
as §1, with “7A)” for “6A)”, “7B) (N=5). Analogs are ranked left to right by TNF % (compound 037 on the far left). Compound 037 analogs have been classified in the following categories according to TNF %: high activity—class A: TNF %>15%; medium activity—class B: 1%<TNF %≤15%; low activity—class C: TNF %≤1%.” for “6B) (N=3-5).”
Table 1 provides the activity of exemplary compounds on stimulating TNF production in PBMCs as compared to the benchmark compound R848. Specifically, TNF production was measured by ELISA after stimulation of adult PBMCs with compound 037 analog family or the compound R848 at 33 μM for 18 hours. […]
ELISAs and Multiplex-Analyte Assays. […] Cytokine and chemokine expression profiles (e.g., IFNγ, IL-10, IL-12 (p70), IL-1β, IL-6, IL-8, MIP-1α/CCL3, TNF and GM-CSF) in cell culture supernatants were measured using a customized 9-plex Milliplex® Human Th17 Magnetic Bead Panel according to the manufacturer's instructions (Millipore, Chicago, Ill., USA). […]

[2] = tested on: Human adult and elderly PBMCs; experiment: Stimulation of adult and elderly PBMCs, TNF and IL-1β by ELISA; type: cell-based
Protocol: (FIG. 2A) Human adult (top) and elderly (bottom) PBMCs stimulated for 18 hours with the TLR7/8 agonist R848 and 24 confirmed hit compounds from TNF AlphaLISA screen. TNF (left panels) and IL-1β (right panels) were assessed in cell-free supernatants by ELISA. Data are shown as median and interquartile range of N=5.
(§2) ELISAs and Multiplex-Analyte Assays. Supernatants derived from human PBMCs and DC stimulations were assayed by ELISA for TNF (ThermoFisher Scientific; Waltham, Mass., USA). Cytokine and chemokine expression profiles (e.g., IFNγ, IL-10, IL-12 (p70), IL-1β, IL-6, IL-8, MIP-1α/CCL3, TNF and GM-CSF) in cell culture supernatants were measured using a customized 9-plex Milliplex® Human Th17 Magnetic Bead Panel according to the manufacturer's instructions (Millipore, Chicago, Ill., USA). Assays were read and analyzed on the Luminex® 100/200™ System and xPOTENT® software (Luminex, Austin, Tex.). A minimum threshold was set at the minimum detectable concentration for each individual assay, defined as three standard deviations above the mean background.
In vitro PBMC stimulation. PBMCs were isolated from blood using a Ficoll density gradient. PBMCs either used fresh or stored at 5×10^7 cells per vial in 1 mL RPMI containing 20% autologous plasma and 10% DMSO at −80° C. until use. […]

THP1-Lucia cells = experiment: NF-kB-induced Luminescence Assay in THP1-Lucia cells; type: cell-based, human; conditions: in comparison to positive control R848, N=4
Protocol: (FIG. 5A) Human adult PBMCs were stimulated for 18 hours with the positive control compound R848 or compound 037 and its analogs at 33 μM. Production human TNF was measured in cell-free supernatants by ELISA (N=5). […] Results are shown as the median, the 25th and 75th percentiles (boxes) and the 5th and 95th percentiles (whiskers). **p<0.01 determined by repeated measure one-way ANOVA with Dunnett's multiple comparison test on log-transformed data and comparing each compound with DMSO (control condition).
THP-1 Cell Line and Culture Conditions. The THP1-Lucia™ cell line was obtained from Invivogen (San Diego, Calif.). THP1-Lucia cells, which are human monocytic cells derived from the blood of a child with leukemia, contain an NF-kB-inducible Luc reporter construct. This allows NF-kB activation to be measured by quantifying the luminescence from the secreted luciferase enzyme. THP1-Lucia cells were cultured in RPMI 1640 supplemented with 10% non-heat inactivated fetal bovine serum (FBS), 10 mM HEPES, 1.0 mM sodium pyruvate, 50 ug/ml Pen-Strep, and 100 ug/mL Normocin™. Once cultured, the cells were stored in a 37° C. incubator with 5% CO2 and a humidified atmosphere. […]
NF-kB-induced Luminescence Assay. […] Immediately after adding the substrate, the luminescence was read using a PerkinElmer Envision plate reader.

[3] = tested on: primary human blood mononuclear cells (PBMC); experiment: TNF AlphaLISA screen on primary human PBMCs; type: cell-based; conditions: hit = robust Z score >2 in both duplicates and in at least 2 of 3 donors
Protocol: To identify immunomodulators/adjuvants that robustly activate human immune cells, ˜200,000 small molecules were tested against THP1 NF-κB reporter cells in a screen. As there is evidence that cell culture lines such as THP-1 cells may not model responses of natural primary human leukocytes, smaller-scale novel high throughput screening methodology was also employed, in which 9,000 commercially available compounds (focusing on small molecule library plates that had relatively high # of hits form the THP-1 screen) were screened using primary human blood mononuclear cells (PBMC) from three different adult human donors (TNFαLISA Assay) (FIGS. 1A-1C).
TNF AlphaLISA screen was comprised of three parts: 1) human peripheral blood collection and PBMC isolation—human adult peripheral blood was collected with written consent. PBMCs were isolated from the blood using Ficoll density gradient. […]
Based on antibody-coated fluorometric excitation/emission beads, the Alpha technology (PerkinElmer) enables the detection and screening of target molecules, in this case TNFα, in a no-wash, highly sensitive, quantitative assay compatible with high throughput screening.
TNFαLISA Assay. […] Viability was assessed by trypan blue staining and cells were then resuspended to 6.67×10^5 viable cells/mL in DMEM with 10% autologous plasma. […]

human adult PBMCs [4] = experiment: 9-plex multiplex cytokine assay after stimulation of adult PBMCs; type: cell-based; conditions: 0.1 μM-33 μM, 18 hours, 10% autologous plasma, N=4; compared with R848
Protocol: Shown is a 9-plex multiplex cytokine assay after stimulation of adult peripheral blood mononuclear cells (PBMCs) with compound 037 or R848 at four different concentrations (0.1 μM-33 μM). Radar plots of immune polarizing cytokine production from human adult PBMCs stimulated for 18 hours in 10% autologous plasma, represented as fold-change over RPMI unstimulated control (N=4).
as §2

## Cc1cnc2nc(-c3ccc(C)c(NC(=O)c4ccccc4C(F)(F)F)c3)cn2c1 [FRF-02-144-3, N-(2-Methyl-5-(6-methylimidazo[1,2-a]pyrimidin-2-yl)phenyl)-2-(trifluoromethyl)benzamide]
Mouse splenocytes
  activation of mouse splenocytes (murine IL-6) and human PBMCs (TNF): activates both human PBMCs and mouse splenocytes

## Cc1ccc(-c2cn3cc(F)cnc3n2)cc1NC(=O)C(c1ccccc1)C(C)C (stereo not drawn) [FRF-03-082, N-(5-(6-Fluoroimidazo[1,2-a]pyrimidin-2-yl)-2-methylphenyl)-3-methyl-2-phenylbutanamide]
Human adult PBMCs [1]; 33 μM, ELISA, median of N=3-5, no unit in table (FIGS. 6B/7B express TNF concentration in ng/ml)
  TNF (Median): 1.008
Human adult PBMCs [1]; classified according to TNF % vs R848, 33 μM
  Activity class: A (high activity—class A: TNF % >15%)
Human adult PBMCs [1]; median percentage TNF production as compared to R848, 33 μM
  TNF % (Median): 41.65%

## CCC(C(=O)Nc1cc(-c2cn3cccnc3n2)ccc1C)c1ccccc1 (stereo not drawn) [Compound 37]
[2]; adult and elderly PBMCs stimulated for 18 hours, N=5
  induction of TNF and IL-1β: induce TNF and IL-1β
[2]; adult and elderly PBMCs, 18 hours
  potency rank as inducer of innate immune cytokines among 24 confirmed hits: most potent inducers of innate immune cytokines
THP1-Lucia cells
  NF-κB-driven expression of luciferase: little activity
[3]
  hit in PBMC TNFαLISA screen: identified
Human adult PBMCs [4]
  cytokine response (9-plex), fold-change over RPMI unstimulated control: broad concentration-dependent cytokine response
